Like-named read-outs stand apart in the source and are kept apart here.
What was measured:
[1] = system: clinical A. baumannii isolate PR474 (OXA-23, OXA-24, OXA-65, ADC-218); experiment: Antimicrobial susceptibility testing, clinical isolate, broth microdilution; format: cell-based; conditions: Acinetobacter baumannii
Procedure: (§1) Clinical A. baumannii isolates containing ADC-33 or OXA-24/-40 in combination with various other well-defined β-lactamases were also tested against CR167 and 6b (Table 5).
(§2) The clinical A. baumannii isolates used to test the β-lactamase inhibitors were selected from a previously well-characterized collection in our lab. They were chosen as they had either ADC-33 and/or OXA-24 in combination with other known β-lactamases (for specific combinations, see Table 5).
(§3) Testing of susceptibility to standard antibiotics was performed with broth microdilution according to CLSI guidelines. MICs for CAZ, CTX, FEP, and IMI were determined using cation-adjusted Mueller–Hinton broth according to CLSI methods, and CR167 or 6b was used at a fixed concentration of 10 mg/L. All MICs were interpreted according to the 2022 Clinical and Laboratory Standards Institute (CLSI) guidelines.

[2] = system: clinical A. baumannii isolate PR408 (OXA-24, OXA-71, ADC-212); experiment: as above; format: cell-based; conditions: Acinetobacter baumannii
Procedure: as §1, §2, §3

[3] = system: clinical A. baumannii isolate PR378 (OXA-24, OXA-65, TEM-1); experiment: as above; format: cell-based; conditions: Acinetobacter baumannii
Procedure: as §1, §2, §3

[4] = system: E. coli DH10B, ADC-7 in pBCSK-; experiment: Antimicrobial susceptibility testing, broth microdilution; format: cell-based; conditions: Escherichia coli
Procedure: (§4) Based upon the inhibitor kinetics (Ki determinations), CR167 and the sulfonamidoboronic acid 6b were tested against E. coli strains expressing ADC-7 and ADC-33 cloned into pBCSK- (DH10B) (Table 3).
(§5) blaADC-7 pBCSK- and blaADC-33 pBCSK- were cloned and expressed in E. coli DH10B cells as previously described.
as §3

[5] = system: E. coli DH10B, ADC-33 in pBCSK-; experiment: as above; format: cell-based; conditions: Escherichia coli
Procedure: as §4, §5, §3

[6] = system: A. baumannii ATCC 17978 native ADC KO, ADC-33 pQF1266; experiment: as above; format: cell-based; conditions: Acinetobacter baumannii
Procedure: (§6) The inhibitory effects of both compounds were tested against ADC-33 and OXA-24/-40 in A. baumannii, their native host. ATCC 17978, with its intrinsic chromosomal ADC knocked out (intrinsic OXA still present), was used in these experiments. In this isolate, the ADC MICs were not lowered by the inhibitors as much as they were against the E. coli background (Table 4).
Plasmid pBCSK- containing the blaADC-33 gene was digested with PvuII, which released the blaADC-33 gene, along with the lac promoter, which drives expression. This PvuII fragment was cloned into the SmaI site of the pQF1266 plasmid.
(§7) pWH1266 is a vector that replicates in A. baumannii, and the […] pWH1266 construct was generated as follows. The TEM gene was removed using inverse PCR, and an Xba1 site was engineered into the vector. blaOXA-24/40 and its upstream XerC/XerD were amplified from strain NM55. The amplified gene was cloned into the Xba1 site of the altered pWH1266 vector. The construct was confirmed using PCR and sequencing. Both blaADC-33 pQF1266 and […] pWH1266 were then expressed in A. baumannii ATCC 17978 that had the intrinsic chromosomal ADC gene knocked out.
(§8) The chromosomal blaADC-51 gene in ATCC 17978 was deleted and replaced with an apramycin resistance cassette using the recombineering method described by Tucker et al.. Primers used for this deletion were: Del AmpC-apra.For: […]; and Del AmpC-apra.Rev: […]. The correct deletion mutant was confirmed using PCR and sequencing.
as §3

ADC-33 = ADC-33 (Acinetobacter baumannii, UniProt A7Y407); experiment: Ki determination, competition assay with nitrocefin (NCF) as substrate; format: biochemical; conditions: for Ki: corrected for NCF affinity, 5 min pre-incubation, pH 7.4
Procedure: (§9) The affinity of CR167 for the two different β-lactamases was measured in competition assays using nitrocefin (NCF) as the indicator substrate (Table 1).
(§10) The binding affinity of each of the compounds 6a–e with ADC-33 and with OXA-24/40 was determined after 5 min pre-incubation of boronic acid and the enzyme, using competition assays with nitrocefin (NCF) as the substrate. […] These compounds differ in three structural characteristics: stereochemistry, the presence of the m-carboxylate on the aromatic ring, and the small chain linked to the chiral center. […] Finally, the smaller the steric hindrance is at the R1 position, the higher the affinity is.
(§11) Ki values were determined by using nitrocefin as a reporter substrate and treating the compounds as competitive inhibitors. Steady-state kinetic parameters were determined by combining pure enzyme with nitrocefin in 50 mM NaH2PO4; 25 mM NaHCO3, pH 7.4 (for OXA-24/40); or 50 mM NaH2PO4, pH 7.4 (for ADC-33), at room temperature. Changes in absorbance were measured on a Cary 60 UV−Vis spectrophotometer (Agilent Technologies) and converted to velocity using the change-in-extinction coefficient specific to nitrocefin (ε = 17,400 M^−1·cm^−1 at 482 nm). Initial velocities were fit to the Michaelis–Menten equation, yielding kcat and Km values. Next, the enzyme was challenged with a constant concentration of nitrocefin and increasing amounts of inhibitor. IC50 values were used to calculate Ki values using the Cheng–Prusoff equation as previously described. Specifically, the measurements of the initial velocities were performed with the addition of 100 µM NCF after a 5 min pre-incubation of the enzyme (2 nM) with increasing concentration of the inhibitor [37]. To determine the average velocities (v0), data from three experiments were fit to Equation (1): (1) v0=vu −{vu[I]/IC 50+[I]} where vu represents the NCF uninhibited velocity and IC50 represents the inhibitor concentration that results in a 50% reduction in vu. The Ki value was corrected for the NCF affinity (Km values for both OXA-24/40 and ADC-33) with the Cheng–Prusoff equation (Equation (2)): (2) Ki=IC50/(1+[NCF]/KmNCF)

OXA-24/40 = molecular target: T1, OXA-24/40 (Acinetobacter baumannii, UniProt Q8RLA6); experiment: as above; format: biochemical
T1 construct: made in house
Procedure: as §9, §10, §11

[7] = system: A. baumannii ATCC 17978 native ADC KO, OXA-24 pWH1266; experiment: Antimicrobial susceptibility testing, broth microdilution; format: cell-based; conditions: Acinetobacter baumannii
Procedure: as §6, §7, §8, §3

[8] = inhibitor at 10 mg/L, PR474, read-out: MIC of CAZ with BLI
[9] = inhibitor at 10 mg/L, PR474, read-out: MIC of CTX with BLI
[10] = inhibitor at 10 mg/L, PR408, read-out: MIC of CAZ with BLI
[11] = inhibitor at 10 mg/L, PR408, read-out: MIC of CTX with BLI
[12] = inhibitor at 10 mg/L, PR378, read-out: MIC of CAZ with BLI
[13] = inhibitor at 10 mg/L, PR378, read-out: MIC of CTX with BLI
[14] = ATCC17978, read-out: MIC of CAZ with BLI
[15] = ATCC17978, read-out: MIC of CTX with BLI
[16] = ATCC17978, read-out: MIC of FEP with BLI
[17] = ATCC17978, read-out: MIC of IMI with BLI

T1 sequence (Q8RLA6 22-275): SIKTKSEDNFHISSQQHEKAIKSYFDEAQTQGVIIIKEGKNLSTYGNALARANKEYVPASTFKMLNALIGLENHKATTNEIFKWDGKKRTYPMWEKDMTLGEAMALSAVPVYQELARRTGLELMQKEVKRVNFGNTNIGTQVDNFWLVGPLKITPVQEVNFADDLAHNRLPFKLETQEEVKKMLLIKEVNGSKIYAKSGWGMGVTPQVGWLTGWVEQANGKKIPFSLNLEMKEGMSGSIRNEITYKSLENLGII

Structure (SMILES): C[C@@H](NS(=O)(=O)Cc1cccc(C(=O)O)c1)B(O)O [6b]
- MIC ([1]; read-out: MIC of IMI with BLI): 128 µg/mL
- MIC [1, 8]: 4100 µg/mL
- MIC [1, 9]: 2050 µg/mL
- MIC ([2]; read-out: MIC of IMI with BLI): 128 µg/mL
- MIC [2, 10]: 512 µg/mL
- MIC [2, 11]: 1020 µg/mL
- MIC [3, 12]: 32 µg/mL
- MIC [3, 13]: 64 µg/mL
- MIC ([3]; inhibitor at 10 mg/L, PR378, read-out: MIC of IMI with BLI): 256 µg/mL
- MIC ([4]; read-out: MIC of CAZ with BLI): 4 µg/mL
- MIC ([4]; read-out: MIC of CTX with BLI): 2 µg/mL
- MIC ([4]; read-out: MIC of FEP with BLI): 0.12 µg/mL
- MIC ([5]; read-out: MIC of CAZ with BLI): 64 µg/mL
- MIC ([5]; read-out: MIC of CTX with BLI): 4 µg/mL
- MIC [6, 14]: 64 µg/mL
- MIC [6, 15]: 32 µg/mL
- MIC [6, 16]: 4 µg/mL
- Ki (ADC-33): 790 ± 200 nM
- fold more potent than 6d, ADC-33 (ADC-33; ratio of Ki, 6b vs 6d): 28 fold
- Ki (OXA-24/40): 5200 ± 500 nM
- fold higher affinity than compound 6a for OXA-24/40 (OXA-24/40; ratio of Ki, 6b vs 6a): 120 fold
- fold more potent than 6d, OXA-24/40 (OXA-24/40; ratio of Ki, 6b vs 6d): 60 fold
- MIC [7, 14]: 8 µg/mL
- MIC [7, 15]: 16 µg/mL
- MIC [7, 16]: 32 µg/mL
- MIC [7, 17]: 128 µg/mL

Structure (SMILES): O=C(O)c1cccc(CS(=O)(=O)NCB(O)O)c1 [CR167]
- MIC ([1]; read-out: MIC of IMI with BLI): 128 µg/mL
- MIC [1, 8]: 4100 µg/mL
- MIC [1, 9]: 2050 µg/mL
- MIC ([2]; read-out: MIC of IMI with BLI): 128 µg/mL
- MIC [2, 10]: 512 µg/mL
- MIC [2, 11]: 1020 µg/mL
- MIC ([3]; read-out: MIC of IMI with BLI): 128 µg/mL
- MIC [3, 12]: 32 µg/mL
- MIC [3, 13]: 64 µg/mL
- MIC ([4]; read-out: MIC of CAZ with BLI): 4 µg/mL
- MIC ([4]; read-out: MIC of CTX with BLI): 2 µg/mL
- MIC ([4]; read-out: MIC of FEP with BLI): 0.12 µg/mL
- MIC ([5]; read-out: MIC of CAZ with BLI): 64 µg/mL
- MIC ([5]; read-out: MIC of CTX with BLI): 2 µg/mL
- MIC [6, 14]: 32 µg/mL
- MIC [6, 15]: 16 µg/mL
- MIC [6, 16]: 4 µg/mL
- Ki (ADC-33): 57 ± 15 nM
- Ki (OXA-24/40): 4400 ± 500 nM
- MIC [7, 14]: 8 µg/mL
- MIC [7, 15]: 16 µg/mL
- MIC [7, 16]: 32 µg/mL
- MIC [7, 17]: 128 µg/mL

Reference: PMC10135033, “Sulfonamidoboronic Acids as “Cross-Class” Inhibitors of an Expanded-Spectrum Class C Cephalosporinase, ADC-33, and a Class D Carbapenemase, OXA-24/40: Strategic Compound Design to Combat Resistance in Acinetobacter baumannii” (Antibiotics, 2023)
